What all share (type): cell-based
One experiment concerns the target T1, N1-109/133 (Canis lupus familiaris, UniProt P23685, N157G/T159I/V150L).
T1 construct: expressed in transfected cells
The experiment in a line: Na+-dependent 45Ca2+ uptake and efflux on NCX1/NCX3 chimera. To be noted: 10 nM; NCX1 region 109-133 (α1) substituted with NCX3 segment. The text has this:
(§1) To deeper investigate on the regions and amino acids present on NCX1 responsible for the interaction with neurounina-1 compound, we utilized chimeric and site-mutated proteins. In particular, we generate chimeric proteins with a large sequence of NCX1 and some regions of NCX3 protein. […] By using the chimeric technique it is possible to determine the importance of NCX1 regions by substituting with analogue segments of NCX3 protein. […] Therefore, these two regions result to be involved in the pharmacological modulation of NCX1 from neurounina-1 compound.
(§2) All experiments aimed to identify the binding site of neurounina-1 were performed on BHK cells stably transfected with a single NCX chimera or mutant.
(§3) The activity of the Na^+/Ca^2+ exchanger was measured by means of ^45Ca^2+ radiotracer variations in the cytoplasm of cells exposed to a protocol stimulating the forward or the reverse mode of the antiporter. The BHK cells expressing each mutated or non-mutated NCX isoform were cultured in 12-well dishes and incubated in 145 mM NaCl for 10 minutes and then in a medium containing only 145 mM N-Methyl D-glucamine (NMDG) and 10 µM of ^45Ca^2+. This rapid substitution of the medium from a high level of Na^+ to another one without Na^+ allow the ^45Ca^2+ influx (reverse mode). Before the medium substitution cells was incubated with 1 mM ouabain, a Na^+/K^+ pump inhibitor, and 10 µM monensin, a ionophore for extracellular Na^+. After 30 seconds incubation, cells were washed with an ice-cold solution containing 2 mM La^3+ to stop ^45Ca^2+ uptake. The medium was removed and cells were subsequently lysed with 0.1 N NaOH and aliquots were taken to determine radioactivity and protein content.
(§4) In order to measure NCX activity in the forward mode, cells were firstly loaded with ^45Ca^2+ and subsequently exposed to a chemical protocol to stimulate the efflux of the radiotracer in the extracellular medium. […] After 60 second, cells were lysed with […] NaOH and aliquots were taken to determine cytoplasmatic radioactivity.

Experiment [1] deals with N3-(109/133-788/829) chimera. The experiment is described as above. To be noted: 10 nM; NCX3 with α1 and α2 regions of NCX1.
Excerpt: as §1, §2, §3, §4

In the next experiment the target is T2, N1-788/829 (Canis lupus familiaris, UniProt P23685, L840F/Q858V/T855L/V852A).
T2 construct: expressed in transfected cells
T2 sequence (P23685 33-970 L840F/V852A/T855L/Q858V): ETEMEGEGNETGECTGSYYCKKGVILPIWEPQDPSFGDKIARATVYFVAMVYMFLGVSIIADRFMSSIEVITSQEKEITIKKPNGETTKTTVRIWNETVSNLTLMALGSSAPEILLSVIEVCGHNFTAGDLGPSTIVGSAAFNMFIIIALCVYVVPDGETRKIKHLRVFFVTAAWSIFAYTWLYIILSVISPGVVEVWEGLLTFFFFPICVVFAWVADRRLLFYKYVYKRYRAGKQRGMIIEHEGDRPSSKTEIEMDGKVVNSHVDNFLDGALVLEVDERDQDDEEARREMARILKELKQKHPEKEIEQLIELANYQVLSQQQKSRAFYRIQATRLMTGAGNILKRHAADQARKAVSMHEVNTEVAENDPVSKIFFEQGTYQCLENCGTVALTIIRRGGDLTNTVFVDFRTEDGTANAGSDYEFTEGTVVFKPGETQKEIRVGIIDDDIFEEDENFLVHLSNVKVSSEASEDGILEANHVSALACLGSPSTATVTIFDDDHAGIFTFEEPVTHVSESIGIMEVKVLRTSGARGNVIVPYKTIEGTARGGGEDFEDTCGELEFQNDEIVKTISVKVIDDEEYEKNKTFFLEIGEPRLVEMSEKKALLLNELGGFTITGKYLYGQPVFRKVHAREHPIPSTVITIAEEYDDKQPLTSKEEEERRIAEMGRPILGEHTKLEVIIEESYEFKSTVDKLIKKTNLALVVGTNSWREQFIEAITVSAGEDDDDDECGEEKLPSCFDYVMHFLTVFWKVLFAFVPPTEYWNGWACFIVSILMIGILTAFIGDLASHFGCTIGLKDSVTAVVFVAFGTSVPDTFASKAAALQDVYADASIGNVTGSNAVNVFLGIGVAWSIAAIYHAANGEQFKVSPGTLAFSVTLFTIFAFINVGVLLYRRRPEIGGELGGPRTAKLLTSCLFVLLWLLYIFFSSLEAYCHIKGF
Described as above. The conditions noted are these: 10 nM; NCX1 region 788-829 (α2) substituted with NCX3 segment.
Excerpt: as §1, §2, §3, §4

The next experiment deals with T3, NCX2 (Rattus norvegicus, UniProt P48768).
T3 construct: expressed in transfected cells
T3 sequence (P48768 21-921): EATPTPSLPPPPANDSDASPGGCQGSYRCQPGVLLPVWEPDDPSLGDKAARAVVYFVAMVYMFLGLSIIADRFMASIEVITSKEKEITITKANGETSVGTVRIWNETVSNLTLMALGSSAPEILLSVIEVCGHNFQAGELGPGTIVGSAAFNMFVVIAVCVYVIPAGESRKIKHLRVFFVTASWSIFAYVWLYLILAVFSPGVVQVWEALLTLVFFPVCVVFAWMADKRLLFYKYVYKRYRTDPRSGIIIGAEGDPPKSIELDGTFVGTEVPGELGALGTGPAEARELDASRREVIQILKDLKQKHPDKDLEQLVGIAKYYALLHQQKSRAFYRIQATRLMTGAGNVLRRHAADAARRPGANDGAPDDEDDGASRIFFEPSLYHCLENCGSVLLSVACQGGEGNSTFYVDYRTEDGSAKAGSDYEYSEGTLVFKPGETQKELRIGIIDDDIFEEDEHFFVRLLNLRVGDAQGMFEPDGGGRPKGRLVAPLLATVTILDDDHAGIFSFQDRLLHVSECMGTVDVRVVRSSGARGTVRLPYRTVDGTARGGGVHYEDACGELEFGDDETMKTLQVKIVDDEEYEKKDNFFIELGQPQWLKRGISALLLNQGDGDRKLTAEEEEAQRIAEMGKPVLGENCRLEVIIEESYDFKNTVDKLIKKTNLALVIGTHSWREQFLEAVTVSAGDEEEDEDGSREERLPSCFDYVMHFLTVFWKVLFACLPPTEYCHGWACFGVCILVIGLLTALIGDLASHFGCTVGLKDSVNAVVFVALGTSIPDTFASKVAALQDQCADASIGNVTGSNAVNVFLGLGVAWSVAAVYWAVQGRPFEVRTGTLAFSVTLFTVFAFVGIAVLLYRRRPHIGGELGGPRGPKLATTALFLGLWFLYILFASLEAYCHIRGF
The experiment in a line: 45Ca2+ radiotracer fluxes (efflux/influx) in BHK-NCX2 cells. The method, then:
(§5) The activity of NCX was established by means of three different subclones of baby hamsted kidney (BHK) cells that were stably transfected with one of each NCX isoforms, named BHK-NCX1, BHK-NCX2 and BHK-NCX3. These cell lines were grown on plastic dishes in a mix of DMEM and Ham's F12 media (1:1) (Gibco, Invitrogen, MI, Italy) supplemented with 5% fetal bovine serum, 100 U/ml penicillin, and 100 µg/ml streptomycin (Sigma, St. Louis, Missouri, USA). Cells were cultured in a humidified 5% CO2 atmosphere and at the temperature of 37°C.
as §3
In order to measure NCX activity in the forward mode, cells were firstly loaded with ^45Ca^2+ and subsequently exposed to a chemical protocol to stimulate the efflux of the radiotracer in the extracellular medium. In particular, cells were loaded with ^45Ca^2+ by using a solution containing 1 µM ionomycin, 145 mM Na^+ and ^45Ca^2+. Next, cells were exposed to a Ca^2+-free solution containing 2 mM EGTA. One µM thapsigargin, a Ca^2+-ATPase inhibitor, was present in both solutions in order to prevent ^45Ca^2+ influx in intracellular organelles. After 60 second, cells were lysed with […] NaOH and aliquots were taken to determine cytoplasmatic radioactivity.
Cells were incubated for 30 minutes with different neurounina-1 concentrations.

The target of the next experiment is T4, NCX1 (Canis lupus familiaris, UniProt P23685).
T4 construct: expressed in transfected cells
T4 sequence (P23685 33-970): as the sequence (P23685 33-970 L840F/V852A/T855L/Q858V) above, with F808L, A820V, L823T, V826Q counted along it
As to the kind of experiment: Patch-clamp electrophysiology (whole-cell NCX currents), BHK-NCX1 cells. The conditions noted are these: 10 nM, 10 minutes. The procedure:
To further investigate the effects of this compound on the Na^+/Ca^2+ exchanger activity, we performed electrophysiological experiments on BHK cells stably transfected with each of NCX isoforms (named BHK-NCX1, BHK-NCX2 and BHK-NCX3).
as §5
NCX currents (/NCX) was recorded from BHK wild-type and BHK stably transfected cells with NCX1, NCX2, and NCX3 and all each mutated of single isoforrms by patch-clamp technique in whole-cell configuration. […] Data were acquired and analyzed by use of pClamp software (version 9.0, Molecular Devices). In brief, /NCX was recorded starting from a holding potential of -60 mV up to a short-step depolarization at +60 mV (60 ms) (He et al., 2003; Xiao et al., 2004). […] The current recorded in the descending portion of the ramp (from +60 to -120 mV) was used to plot the current-voltage (I-V) relation curve. […]

T1 sequence (P23685 33-970 V150L/N157G/T159I): as the sequence (P23685 33-970 L840F/V852A/T855L/Q858V) above, with V118L, N125G, T127I, F808L, A820V, L823T, V826Q counted along it

The EC50 is the concentration giving half of the maximal effect. As for `O=C1CN=C(c2ccccc2)c2cc([N+](=O)[O-])ccc2N1CN1CCCC1` [neurounina-1, 7-nitro-5-phenyl-1-(pyrrolidin-1-ylmethyl)-1H-benzo[e][1,4]diazepin-2(3H)-one], the “pharmacological effect on N1-109/133 chimera” value on N1-109/133 is “removed the pharmacological effect”. Further, the “activity of N3-(109/133-788/829) chimera” value in experiment [1] is on record as “significantly increased activity”. At N1-788/829, the “pharmacological effect on N1-788/829 chimera” value is “removed the pharmacological effect”. The “increase of forward mode of NCX2 activity” value on NCX2 (45Ca2+ radiotracer, forward mode) is recorded as 30%. Also, the “increase of reverse mode NCX2 activity” value on NCX2 (45Ca2+ radiotracer, reverse mode) worked out at 40%. Moreover, the EC50 on NCX2 (EC50 NCX2, reverse mode, 45Ca2+ radiotracer, reverse mode) was 2.7 nM; at NCX2 (EC50 for NCX2, forward mode, 45Ca2+ radiotracer, forward mode), 1.7 nM; at NCX2 (EC50 su NCX2, from the functional assays (summary)) it was 1 to 2 nM. Besides, the NCX2 activity entry on NCX2 (forward and reverse mode, patch clamp, Fura-2 microfluorimetry and 45Ca2+ fluxes (summary)) is listed as “increases, in a dose-dependent manner”. Also, the “increased forward and reverse activity of NCX1” value at NCX1 is reported as 60%.

These data come from patent EP2646421B1, “7-NITRO-5-PHENYL-1-(PYRROLIDIN-1-YLMETHYL)-1H-BENZO[E][1,4]DIAZEPIN-2(3H)-ONE AND OTHER BENZODIAZEPINE DERIVATIVES” (Pignataro, Giuseppe, priority 2010, dated 2012).
